Laboratory results as given in PMC7034945 (RSC Advances, 2019).
Like-named read-outs stand apart in the source and are kept apart here.

What was measured:
TZM-bl cells = settings: uninfected TZM-bl cells, NA = no cytotoxicity at the test concentration
HIV-1 NL4-3 virus = experiment: Anti-HIV-1 activity, multicycle assay with HIV-1 NL4-3 in TZM-bl cells; assay type: cell-based; settings: for anti-HIV-1 activity (in words) / SI (selectivity index, ratio of CC50/EC50): TZM-bl cells; for anti-HIV-1 activity (in words): at the test concentration
in vitro = settings: human
[1] = Caco-2, pH 7.4, Mean Papp A to B, Caco-2, 2 μM, 2 hours, pH 7.40
[2] = Caco-2, pH 7.4, Rank Papp, Caco-2, A to B, permeability class
[3] = Caco-2, pH 7.4, apparent permeability (Papp), Caco-2 cells
[4] = Human immunodeficiency virus 1, NL43, TZM-bl

EC50 (HIV-1 NL4-3 virus; [4]) [µM] | Molecule | SI (selectivity index, ratio of CC50/EC50) (HIV-1 NL4-3 virus; Table 1) | further results
– | N-((S)-3-(3,5-Difluorophenyl)-1-((4-methoxyphenyl)(methyl)amino)-1-oxopropan-2-yl)-1-(2-(hydroxymethyl)-5-(5-methyl-2,6-dioxo-1,2,3,6-tetrahydropyridin-3-yl)tetrahydrofuran-3-yl)-1H-1,2,3-triazole-4-carboxamide [I-8u] | – | CC50 (TZM-bl cells; Table 1): > 15.6 µM; anti-HIV-1 activity (in words) (HIV-1 NL4-3 virus): lost its anti-HIV-1 activity; EC50 (HIV-1 NL4-3 virus; Table 1, HIV-1 NL4-3, TZM-bl cells, NA = no anti-HIV-1 activity at the test concentration): > 15.6 µM
– | (S)-N-(1-((4-Methoxyphenyl)(methyl)amino)-1-oxo-3-phenylpropan-2-yl)-3-(1-(quinolin-2-yl)-1H-1,2,3-triazol-4-yl)benzamide [III-15i] | – | CC50 (TZM-bl cells; Table 2): > 34.3 µM; EC50 (HIV-1 NL4-3 virus; Table 2, HIV-1 NL4-3, TZM-bl cells, NA = no anti-HIV-1 activity at the test concentration): > 34.3 µM
– | CC(C)(C)NCC(O)COc1cccc2c1CC(O)C(O)C2 (centres unmarked) [Nadolol] | – | Papp A→B (in vitro; [1]): 0.08 ×10⁻⁶ cm/s; Papp A→B (in vitro; [2]): < 0.5 ×10⁻⁶ cm/s; Papp A→B (in vitro; [3]): 0.08 ×10⁻⁶ cm/s
9.26 ± 2.54 | COc1ccc(N(C)C(=O)[C@H](Cc2cc(F)cc(F)c2)NC(=O)c2cn(Cc3ccc([N+](=O)[O-])cc3)nn2)cc1 [I-8l, (S)-N-(3-(3,5-Difluorophenyl)-1-((4-methoxyphenyl)(methyl)amino)-1-oxopropan-2-yl)-1-(4-nitrobenzyl)-1H-1,2,3-triazole-4-carboxamide] | >1.96 | –
> 33.6 | COc1ccc(N(C)C(=O)[C@H](Cc2ccccc2)NC(=O)c2cccc(-c3cn(Cc4cccc5ccccc45)nn3)c2)cc1 [III-15k, (S)-N-(1-((4-Methoxyphenyl)(methyl)amino)-1-oxo-3-phenylpropan-2-yl)-3-(1-(naphthalen-1-ylmethyl)-1H-1,2,3-triazol-4-yl)benzamide] | – | –
4.21 ± 0.9 | COc1ccc(N(C)C(=O)[C@H](Cc2cc(F)cc(F)c2)NC(=O)c2cn(CS(=O)(=O)c3ccccc3)nn2)cc1 [I-8t, (S)-N-(3-(3,5-Difluorophenyl)-1-((4-methoxyphenyl)(methyl)amino)-1-oxopropan-2-yl)-1-((phenylsulfonyl)methyl)-1H-1,2,3-triazole-4-carboxamide] | >4.17 | –
– | COCCc1ccc(OCC(O)CNC(C)C)cc1 (centres unmarked) [Metoprolol] | – | Papp A→B (in vitro; [1]): 16.4 ×10⁻⁶ cm/s; Papp A→B (in vitro; [2]): > 2.5 ×10⁻⁶ cm/s; Papp A→B (in vitro; [3]): 16.4 ×10⁻⁶ cm/s
26.2 ± 7.3 | COc1ccc(N(C)C(=O)[C@H](Cc2ccccc2)NC(=O)c2cccc(-c3cn(Cc4ccc(C(N)=O)cc4)nn3)c2)cc1 [III-15d, (S)-3-(1-(4-Carbamoylbenzyl)-1H-1,2,3-triazol-4-yl)-N-(1-((4-methoxyphenyl)(methyl)amino)-1-oxo-3-phenylpropan-2-yl)benzamide] | – | anti-HIV-1 activity (in words) (HIV-1 NL4-3 virus): exhibited anti-HIV-1 activity at the test concentration; SI (selectivity index, ratio of CC50/EC50) (HIV-1 NL4-3 virus; Table 2): >1.30
10.6 ± 3.46 | COc1ccc(N(C)C(=O)[C@H](Cc2cc(F)cc(F)c2)NC(=O)c2cn(Cc3ccc(C)cc3)nn2)cc1 [I-8c, (S)-N-(3-(3,5-Difluorophenyl)-1-((4-methoxyphenyl)(methyl)amino)-1-oxopropan-2-yl)-1-(4-methylbenzyl)-1H-1,2,3-triazole-4-carboxamide] | >1.82 | –
– | (S)-N-(1-((4-Methoxyphenyl)(methyl)amino)-1-oxo-3-phenylpropan-2-yl)-3-(1-(naphthalen-1-ylmethyl)-1H-1,2,3-triazol-4-yl)benzamide [III-15l] | – | anti-HIV-1 activity (in words) (HIV-1 NL4-3 virus): lost anti-HIV-1 activity completely
> 33.9 | COc1ccc(N(C)C(=O)[C@H](Cc2ccccc2)NC(=O)c2cccc(-c3cn(Cc4ccc([N+](=O)[O-])cc4)nn3)c2)cc1 [III-15c, (S)-N-(1-((4-Methoxyphenyl)(methyl)amino)-1-oxo-3-phenylpropan-2-yl)-3-(1-(4-nitrobenzyl)-1H-1,2,3-triazol-4-yl)benzamide] | – | –
12.3 ± 2.39 | COc1ccc(N(C)C(=O)[C@H](Cc2cc(F)cc(F)c2)NC(=O)c2cn(Cc3ccc(S(N)(=O)=O)cc3)nn2)cc1 [I-8r, (S)-N-(3-(3,5-Difluorophenyl)-1-((4-methoxyphenyl)(methyl)amino)-1-oxopropan-2-yl)-1-(4-sulfamoylbenzyl)-1H-1,2,3-triazole-4-carboxamide] | >1.39 | –
> 33.9 | COc1ccc(N(C)C(=O)[C@H](Cc2ccccc2)NC(=O)c2cccc(-c3cn(Cc4cccc([N+](=O)[O-])c4)nn3)c2)cc1 [III-15b, (S)-N-(1-((4-Methoxyphenyl)(methyl)amino)-1-oxo-3-phenylpropan-2-yl)-3-(1-(3-nitrobenzyl)-1H-1,2,3-triazol-4-yl)benzamide] | – | –
8.33 ± 1.41 | COc1ccc(N(C)C(=O)[C@H](Cc2cc(F)cc(F)c2)NC(=O)c2cn(Cc3cccc(Cl)c3)nn2)cc1 [I-8e, (S)-1-(3-Chlorobenzyl)-N-(3-(3,5-difluorophenyl)-1-((4-methoxyphenyl)(methyl)amino)-1-oxopropan-2-yl)-1H-1,2,3-triazole-4-carboxamide] | >2.22 | –
> 32 | COc1ccc(N(C)C(=O)[C@H](Cc2ccccc2)NC(=O)c2cccc(-c3cn(Cc4ccc(S(N)(=O)=O)cc4)nn3)c2)cc1 [III-15f, (S)-N-(1-((4-Methoxyphenyl)(methyl)amino)-1-oxo-3-phenylpropan-2-yl)-3-(1-(4-sulfamoylbenzyl)-1H-1,2,3-triazol-4-yl)benzamide] | – | –
9.43 ± 2.31 | COc1ccc(N(C)C(=O)[C@H](Cc2cc(F)cc(F)c2)NC(=O)c2cn(Cc3cccc(C)c3)nn2)cc1 [I-8b, (S)-N-(3-(3,5-Difluorophenyl)-1-((4-methoxyphenyl)(methyl)amino)-1-oxopropan-2-yl)-1-(3-methylbenzyl)-1H-1,2,3-triazole-4-carboxamide] | >2.04 | –
8.85 ± 2.69 | COc1ccc(N(C)C(=O)[C@H](Cc2cc(F)cc(F)c2)NC(=O)c2cn(Cc3ccccc3C)nn2)cc1 [I-8a, (S)-N-(3-(3,5-Difluorophenyl)-1-((4-methoxyphenyl)(methyl)amino)-1-oxopropan-2-yl)-1-(2-methylbenzyl)-1H-1,2,3-triazole-4-carboxamide] | >2.18 | –
> 34.9 | COc1ccc(N(C)C(=O)[C@H](Cc2ccccc2)NC(=O)c2cccc(-c3cn(CCCc4ccccc4)nn3)c2)cc1 [III-15g, (S)-N-(1-((4-Methoxyphenyl)(methyl)amino)-1-oxo-3-phenylpropan-2-yl)-3-(1-(3-phenylpropyl)-1H-1,2,3-triazol-4-yl)benzamide] | – | –
5.84 ± 1.53 | COc1ccc(N(C)C(=O)[C@H](Cc2cc(F)cc(F)c2)NC(=O)c2cn(Cc3ccc(C#N)cc3)nn2)cc1 [I-8i, (S)-1-(4-Cyanobenzyl)-N-(3-(3,5-difluorophenyl)-1-((4-methoxyphenyl)(methyl)amino)-1-oxopropan-2-yl)-1H-1,2,3-triazole-4-carboxamide] | >3.23 | –
> 33.9 | COc1ccc(N(C)C(=O)[C@H](Cc2ccccc2)NC(=O)c2cccc(-c3cn(Cc4ccccc4[N+](=O)[O-])nn3)c2)cc1 [III-15a, (S)-N-(1-((4-Methoxyphenyl)(methyl)amino)-1-oxo-3-phenylpropan-2-yl)-3-(1-(2-nitrobenzyl)-1H-1,2,3-triazol-4-yl)benzamide] | – | –
11.1 ± 2 | COc1ccc(N(C)C(=O)[C@H](Cc2cc(F)cc(F)c2)NC(=O)c2cn(Cc3ccc(C(N)=O)cc3)nn2)cc1 [I-8s, (S)-1-(4-Carbamoylbenzyl)-N-(3-(3,5-difluorophenyl)-1-((4-methoxyphenyl)(methyl)amino)-1-oxopropan-2-yl)-1H-1,2,3-triazole-4-carboxamide] | >1.64 | –
3.58 ± 0.64 | COc1ccc(N(C)C(=O)[C@H](Cc2cc(F)cc(F)c2)NC(=O)c2cn(Cc3cccc(C#N)c3)nn2)cc1 [I-8h, (S)-1-(3-Cyanobenzyl)-N-(3-(3,5-difluorophenyl)-1-((4-methoxyphenyl)(methyl)amino)-1-oxopropan-2-yl)-1H-1,2,3-triazole-4-carboxamide] | >5.27 | –
> 34 | COc1ccc(N(C)C(=O)[C@H](Cc2ccccc2)NC(=O)c2cccc(-c3cn(CC(=O)Nc4ccccc4)nn3)c2)cc1 [III-15e, (S)-N-(1-((4-Methoxyphenyl)(methyl)amino)-1-oxo-3-phenylpropan-2-yl)-3-(1-(2-oxo-2-(phenylamino)ethyl)-1H-1,2,3-triazol-4-yl)benzamide] | – | –
> 35.5 | COc1ccc(N(C)C(=O)[C@H](Cc2cc(F)cc(F)c2)NC(=O)c2cccc(-c3cn(Cc4cccc([N+](=O)[O-])c4)nn3)c2)cc1 [II-10b, (S)-N-(3-(3,5-Difluorophenyl)-1-((4-methoxyphenyl)(methyl)amino)-1-oxopropan-2-yl)-3-(1-(3-nitrobenzyl)-1H-1,2,3-triazol-4-yl)benzamide] | – | –
3.27 ± 0.78 | COc1ccc(N(C)C(=O)[C@H](Cc2cc(F)cc(F)c2)NC(=O)c2cn(Cc3ccccc3[N+](=O)[O-])nn2)cc1 [I-8j, (S)-N-(3-(3,5-Difluorophenyl)-1-((4-methoxyphenyl)(methyl)amino)-1-oxopropan-2-yl)-1-(2-nitrobenzyl)-1H-1,2,3-triazole-4-carboxamide] | >5.55 | –
> 32.8 | COc1ccc(N(C)C(=O)[C@H](Cc2cc(F)cc(F)c2)NC(=O)c2cccc(-c3cn(CCCc4ccccc4)nn3)c2)cc1 [II-10g, (S)-N-(3-(3,5-Difluorophenyl)-1-((4-methoxyphenyl)(methyl)amino)-1-oxopropan-2-yl)-3-(1-(3-phenylpropyl)-1H-1,2,3-triazol-4-yl)benzamide] | – | –
> 30.3 | COc1ccc(N(C)C(=O)[C@H](Cc2cc(F)cc(F)c2)NC(=O)c2cccc(-c3cn(Cc4ccc(S(N)(=O)=O)cc4)nn3)c2)cc1 [II-10f, (S)-N-(3-(3,5-Difluorophenyl)-1-((4-methoxyphenyl)(methyl)amino)-1-oxopropan-2-yl)-3-(1-(4-sulfamoylbenzyl)-1H-1,2,3-triazol-4-yl)benzamide] | – | –
